Data published in publication PMC12595484, “Optimizing multifunctional fluorescent ligands for intracellular labeling” (Proceedings of the National Academy of Sciences of the …, 2025).
Values joined by “and” are separate entries in the source; they are usually repeats but may differ in a detail not shown here. Equal entries are not always repeated. Where two headings read alike, the source gives them in different places.

Key:
[1] = test system: OMP25–msGFP–HaloTag fusion protein in HEK293T cells; test: Pulse–chase HaloTag labeling efficiency, SDS–PAGE/in-gel fluorescence; format: cell-based; conditions: 2 h, mean ± SEM
Experimental: PBS, 2% (v/v) SDS, 1% (v/v) Triton x-100, 10 mM EDTA, and protease inhibitors (2 mM PMSF, aprotinin, leupeptin, and pepstatin A). Samples were then incubated at 50 °C for 3–4 min after the addition of Laemmli sample buffer (SB; Bio-Rad, 1610747) with β-mercaptoethanol (Bio-Rad, 1610710). For protein detection, 10–20 µL of the sample was subjected to SDS-PAGE, using 10% Tris-Glycine gels (TGX) (Bio-Rad, 5671034) with Tris-Glycine buffer (Bio-Rad, 1610732). […]
Quantification of HaloTag labeling efficiency using in-gel fluorescence. HEK293T cells were cultured, incubated and transfected with pF(UG) hSyn HaloTag-TEV-4×GS-msGFP-mito using lipofectamine LTX reagent as described above. To examine saturation of HaloTag, we screened for fluorescence plateau using 1 μM of JF479-HaloTag ligand,4 JF549-HaloTag ligand (2HTL) and […]
(2HTL) and JF608-HaloTag ligand (3HTL) reached a fluorescence plateau, and they were chosen as saturating counter stains or “chase” dyes for examining the labeling efficiency of biotin-JF-HaloTag ligands (13HTL–16HTL). Next, we developed an in-gel assay to independently quantitate labeling efficiencies of 13HTL–16HTL. We used JF549-HaloTag ligand (2HTL) as chase for evaluating biotin-JF608-HaloTag ligand (14HTL), biotin-JF646-HaloTag ligand (15HTL), and biotin-JF635-HaloTag ligand (16HTL). We used JF608-HaloTag ligand (3HTL) as chase for evaluating biotin-JF549-HaloTag ligand (13HTL). Each experiment consisted of testing the biotin variants 13HTL–16HTL at 100 nM and 1 μM with an incubation time of 2 h and a chase labeling incubation of 1 μM for 0.5 h. The 0.5 h chase labeling period was included with the 2 h total incubation. Each experiment consisted of the following conditions: untransfected cells; (A) transduced, but no dye; (B) non-biotinylated variant of primary label at 1 μM for 0.5 h; (C) the nonbiotinylated version of the chase JF dye at 1 μM for 0.5 h; (D) 100 nM of the nonbiotinylated version of the primary label for 2 h; (E) 100 nM of the biotinylated version of primary label for 2 h; (F) 1 μM of the nonbiotinylated version of the primary label for 2 h; (G) 1 μM of the biotinylated version of primary label for 2 h; and (H) 1 μM of the non-biotinylated version of the chase JF dye at 1 μM for 2 h. This last condition H was the same as condition C but with a longer incubation (2 h vs. 0.5 h) to allow independent verification of the chase saturation using 0.5 h incubation. Samples D–G were incubated with a nonbiotinylated chase dye at 1 μM for 0.5 h. Cells were washed and protein lysates were harvested using Bio-Rad SDS-PAGE products as described above. Specifically, cells were lysed using protein lysis buffer as described above, and adding XT Sample Buffer (Bio-Rad, 1610791) and XT Reducing Agent (Bio-Rad, 1610792). Samples were heated at 72 °C for 5 min. Samples were then loaded onto a 4–12% Criterion XT Bis-Tris gel (Bio-Rad, 3450124) and ran at 150 V for approximately 1 h. Gels were then imaged on a Chemidoc MP imager (Bio-Rad) using orange, red, and far-red filters. Bands representing HaloTag ligand were quantified by densitometry using […]
(§1) labeling efficiency calculations, bands representing saturating chase dye fluorescence (e.g., JF549) were compared to saturating primary dye fluorescence allowing estimation of the amount of […]
Where F is the fraction of HaloTag protein labeled, Ce is the experimental chase dye fluorescence signal after incubation with pulse biotin-JF-HaloTag ligand, and Cs is the saturating chase dye fluorescence without incubation with a pulse ligand.
Neuro2a cell culture, labeling, lattice light sheet microscopy (LLSM), and confocal microscopy. Neuro2a cells (ATCC, CCL-131) were cultured in Eagle's minimum essential medium (MEM, phenol red-free; Life Technologies) supplemented with 10% (v/v) fetal bovine serum (FBS), and maintained at 37 °C in a humidified 5% (v/v) CO2 environment. Cells were transiently transfected using nucleofection (Lonza) with plasmids constitutively expressing

[2] = test system: sfGFP–BRD4 in Neuro2a cells expressing coilin–HaloTag; test: BRD4 translocation to coilin–HaloTag, LLSM; format: cell-based
Experimental: The ability of JQ1 ligands to enter living cells and recruit BRD4 to defined genomic regions was evaluated using lattice light sheet fluorescence microscopy (LLSM). Neuro2a cells were transiently transfected with plasmids encoding three fusion proteins: i) HaloTag protein fused to coilin, […]; ii) superfolder GFP–BRD4; and iii) histone H2B–mCherry as a nuclear marker. The Cajal body component coilin localizes in distinct puncta in the nucleus ([62]) compared to the diffuse euchromatic distribution of BRD4. […]
Neuro2a cell culture, labeling, lattice light sheet microscopy (LLSM), and confocal microscopy. […]
Full 3D volumes at multiple stage positions were collected at 2 minute intervals for 90 minutes total. […] The recruitment of histone H3.3 was assessed by imaging after 24 h incubation with 19HTL. […]
LLSM imaging processing. Raw image data volumes were deskewed and rotated, then empirically deconvolved using a Richardson-Lucy maximum likelihood algorithm using experimentally measured PSFs for each color channel for 30 iterations. […] These segmentation masks were then used to isolate each nucleus for further quantitative analyses. […] The amount of BRD4 signal was then assessed in- versus outside HaloTag labeled domains throughout the 90-min time-lapse acquisition. […]

[3] = Determination of logD7.4 (miniaturized shake flask, octanol–PBS); format: physicochemical; conditions: pH 7.4
Experimental: Detailed descriptions of the materials and methods are provided in the supporting information. Multifunctional rhodamine–HaloTag ligands (13HTL–16HTL and 18HTL–20HTL) were synthesized using palladium-catalyzed cross-coupling reactions to install 3-carboxyazetidine moieties onto rhodamine scaffolds, followed by amide bond formation with biotin–PEG2–NH2, (S)-JQ1–PEG2–NH2, or (R)-JQ1–PEG2–NH2. Spectroscopic properties (λabs, λem, ε, and Φf) were determined in 10 mM HEPES, pH 7.3. The lactone–zwitterion equilibrium constants (KL–Z) were measured in 1:1 (v/v) dioxane–water mixtures. Octanol–water distribution coefficients (logD7.4) were determined by miniaturized shake-flask partitioning experiments using PBS (pH 7.4) and 1-octanol. Cell culture experiments employed HEK293T, U2OS, and Neuro2a cells transfected with HaloTag fusion constructs and labeled with ligands (100 nM to 1 μM, 0.5 to 2 h at 37 °C), followed by fluorescence microscopy using confocal or lattice light-sheet microscopy. Affinity purification studies utilized streptavidin magnetic beads to capture biotin-labeled HaloTag conjugates, with analysis by SDS-PAGE and in-gel fluorescence detection. […]
Reported values are averages of at least two measurements.
Determination of logD7.4. The log of distribution coefficients at pH 7.4 was determined in octanol–phosphate-buffered saline (PBS) using a miniaturized shake flask setup described previously.6, 7 Briefly, 150 mL each of octanol and PBS pH 7.4 were stirred vigorously for 12–16 h. The layers were allowed to stand for at least 24 h for phase separation. The separated layers were collected and served as PBS saturated with octanol (PBS*) and octanol saturated with PBS (octanol*). Stock solutions (1 mM or 5 mM) of ligands were prepared in DMSO and diluted in PBS* to obtain 1 μM or 10 μM (3–5 mL) of the standard (std). This standard was used to prepare appropriate dilutions using octanol*, in triplicate, in 2-mL glass vials. The leftover standard was used to determine the standard concentration (Cstd). The vials were vortexed for 1 min and shaken horizontally at 700 rpm for 2 h. The vials were then shaken upright at 150 rpm for 2 h to allow the phases to separate. The octanol* layer was pipetted out, and the PBS* layer was used for further analyses. The concentrations of ligands in the standard and PBS* (CPBS*) were determined via fluorescence measurements of 200 μL of PBS* or std in 96-well plates on the Cytation 5 Multimode Plate Reader (BioTek). For Si-rhodamine containing ligands, 2–20 μL of […]
trifluoroacetic acid was added to each well of the 96-well plate prior to the fluorescence measurements. Reported values are averages of at least two measurements. The logD7.4 was obtained as described previously using equation 2: logD = log *’(" × r − 1. +)*+∗ / (2) […]
where Cstd is the standard concentration in PBS, CPBS* is the concentration in PBS after partitioning, r is the dilution factor of the standard solution, VPBS* is the volume of PBS used in the partitioning, and Voctanol* is the volume of octanol used in the partitioning.
Plasmid construction for mitochondria imaging and affinity purification. HaloTag, amplified from the pHTC HaloTag CMV-neo Vector (Promega; G7711) and monomeric-superfolder green fluorescent protein (msGFP; lab stock), was fused to the mitochondrial targeting signal from OMP25,8 interspacing flexible GS(GSS)4 linkers between each domain by PCR Splicing by Overlap Extension (SOE). This construct was subcloned into hSynapsin promoter bearing a copy of FUGW.9 FUGW was a gift from David Baltimore (Addgene plasmid # 14883; RRID:
Addgene_14883).10 This construct was designated as pF(UG) hSyn HaloTag-TEV-4×GS-msGFP- […]
HEK293T cell culture. HEK293T cells (ATCC) were passaged before 80% confluency by trypsinization (Corning; 25-053-CI) and trituration. The cell suspension was then plated on glass coverslips (Warner instruments; 64-0734, CS-18R17) coated with poly-D-lysine (Thermofisher; […]

[4] = design: method as in PMID 28869757, PMID 25599551; conditions: 10 mM HEPES, pH 7.3; ref 27 and 50; cited from earlier work
[5] = 1:1 (v/v) dioxane–water, cited from earlier work
[6] = test system: sfGFP–BRD4 in Neuro2a cells expressing HP1a–HaloTag; test: BRD4 translocation to HP1a–HaloTag, LLSM; format: cell-based; conditions: 90 min
Source text: Given its lower fluorescence background and more efficacious recruitment of BRD4, we focused on (S)-JQ1–JF635–HaloTag ligand (19HTL) for subsequent experiments. To test the generality of 19HTL in recruiting BRD4, we imaged cells expressing heterochromatin protein 1a (HP1a) fused to HaloTag (Fig. 7A). HP1a is localized within constitutive heterochromatin as its N-terminal chromodomain binds to methylated histone H3 ([65]).
(2HTL) and JF608-HaloTag ligand (3HTL) reached a fluorescence plateau, and they were chosen as saturating counter stains or “chase” dyes for examining the labeling efficiency of biotin-JF-HaloTag ligands (13HTL–16HTL). Next, we developed an in-gel assay to independently quantitate labeling efficiencies of 13HTL–16HTL. […] Bands representing HaloTag ligand were quantified by densitometry using […]
as §1
Where F is the fraction of HaloTag protein labeled, Ce is the experimental chase dye fluorescence signal after incubation with pulse biotin-JF-HaloTag ligand, and Cs is the saturating chase dye fluorescence without incubation with a pulse ligand. […]

| Molecule | logD [3] | Φf [4] | ε [4] | λabs [4] [nm] | λem [4] [nm] | further results |
| --- | --- | --- | --- | --- | --- | --- |
| O=C(CCCC[C@@H]1SC[C@@H]2NC(=O)N[C@@H]21)NCCOCCOCCCCCCCl [17HTL, biotin–HaloTag ligand, reference compound] | – | – | – | – | – | labeling efficiency ([1]; 100 nM pulse): 32.0 ± 9.3%; labeling efficiency ([1]; 1 µM pulse): 92.1 ± 0.4% |
| Cc1sc2c(c1C)C(c1ccc(Cl)cc1)=N[C@@H](CC(=O)OC(C)(C)C)c1nnc(C)n1-2 [JQ1, (S)-JQ1, reference compound] | – | – | – | – | – | effect of excess free JQ1 on BRD4 recruitment by 19HTL ([2]; 25 μM (S)-JQ1 with 20 nM 19HTL, coilin–HaloTag, confocal): inhibited BRD4 recruitment |
| C[Si]1(C)c2cc(N3CCC3)ccc2C2(OC(=O)c3ccccc32)c2ccc(N3CCC3)cc21 [compound 5, Janelia Fluor 646] | 3.98 | 0.54 | 5,000 M^−1cm^−1 | 646 | 664 | KL–Z ([5]; parent dyes, ref 27 and 50): 0.0014 |
| C[Si]1(C)c2cc(N3CC(F)C3)ccc2C2(OC(=O)c3ccccc32)c2ccc(N3CC(F)C3)cc21 [compound 6, JF635] | 4.1 | 0.66 | ~ 400 M^−1cm^−1 | 635 | 652 | KL–Z [5]: ≈ 0.0001 and 0.0001 |
| (R)-JQ1–JF635–HaloTag ligand [20HTL] | – | – | – | – | – | BRD4 recruitment to coilin–HaloTag sites ([2]; Neuro2a cells, LLSM, 90 min): no GFP–BRD4 recruitment; BRD4 translocation to HP1a–HaloTag [6]: no GFP–BRD4 recruitment |
